Patent US20150344843A1, “DETERGENT TREATED BIOLOGICAL TISSUE WITH LOW RESIDUAL DETERGENT AND METHOD OF PRODUCING THE SAME” (Bacterin International, Inc., priority 2014, published 2015)

System: L-929 mouse fibroblast cells
Test: MEM endpoint dilution assay for liquids (cytotoxic threshold of SDS)
Type: cell-based
Parameters: key to Cytotoxicity Score: 0: Discrete intracytoplasmic granules, no cell lysis, no reduction of cell growth; 1: Not more than 20% of the cells are round, loosely attached, and without intracytoplasmic granules, or show changes in morphology; occasional lysed cells are present; only slight growth inhibition observable; 2: Not more than 50% of the cells are round, devoid of intracytoplasmic granules, no extensive cell lysis; not more than 50% growth inhibition observable; 3: Not more than 70% of the cell layers contain rounded cells or are lysed; cell layers not completely destroyed, but more than 50% growth inhibition observable; 4: Nearly complete or complete destruction of the cell layers
Settings: for Cytotoxicity Score: about 24 hours; for Pass/Fail: scores 0-2 Pass, 3-4 Fail per Table 1
Method: To determine the cytotoxic threshold of SDS, an MEM endpoint dilution assay for liquids using L-929 mouse fibroblast cells was performed. Briefly, solutions of Eagle's minimum essential medium with about 5% fetal bovine serum were created with various concentrations of SDS. One mL of the SDS containing medium was placed in a disposable tissue culture labware and a monoloyer of L-929 mouse fibroblasts was placed on top of the media. The cells were incubated for about 24 hours at about 37° C. in a humidified atmosphere of about 5% CO2 in air. The mouse fibroblasts were then […] examined using the semi-quantitative scale defined in Table 1.
Appropriate positive and negative controls were assessed to ensure the validity of the assay.

[1] = SDS concentration 4 μg/mL (approximate)
[2] = SDS concentration 8 μg/mL (approximate)
[3] = SDS concentration 16 μg/mL (approximate)
[4] = SDS concentration 17 μg/mL (approximate)
[5] = SDS concentration 20 μg/mL (approximate)
[6] = SDS concentration 23 μg/mL (approximate)
[7] = SDS concentration 26 μg/mL (approximate)
[8] = SDS concentration 29 μg/mL (approximate)
[9] = SDS concentration 32 μg/mL (approximate)

CCCCCCCCCCCCOS(=O)(=O)[O-].[Na+] [SDS, sodium dodecyl sulfate]
Cytotoxicity Score [1]: 0 | Pass/Fail [1]: Pass | Cytotoxicity Score [2]: 0 | Pass/Fail [2]: Pass | Cytotoxicity Score [3]: 0 | Pass/Fail [3]: Pass | Cytotoxicity Score [4]: 0 | Pass/Fail [4]: Pass | Cytotoxicity Score [5]: 0 | Pass/Fail [5]: Pass | Cytotoxicity Score [6]: 1 | Pass/Fail [6]: Pass | Cytotoxicity Score [7]: 4 | Pass/Fail [7]: Fail | Cytotoxicity Score [8]: 4 | Pass/Fail [8]: Fail | Cytotoxicity Score [9]: 4 | Pass/Fail [9]: Fail | limit of toxicity for SDS, corresponding tissue content (converted from μg/mL limit): 86-98 ng of SDS/mg of tissue | SDS content for tissue to be non-cytotoxic (threshold from in vitro limit): less than 86 ng of SDS/mg of tissue
